The structures appear in SMILES notation.

Drawing on BindingDB's records for doi:10.1016/S0960-894X(01)80892-1 (1993), this text covers Ki for 9 compounds.

This assay in a line: Binding affinity against sigma receptor in guinea pig brain preparation was estimated using [3H]3-PPP as radioligand.
Consider `C1=C(c2ccccn2)CCN(CCCCc2ccncc2)C1` [1'-(4-Pyridin-4-yl-butyl)-1',2',3',6'-tetrahydro-[2,4']bipyridinyl], for which the Ki (in general, a dissociation constant, usually derived from enzyme kinetics or from competition with a known ligand) is 44.5 nM. In the case of `C1=C(c2c[nH]c3ccccc23)CCN(CCCCc2ccncc2)C1` [3-[1-(4-Pyridin-4-yl-butyl)-1,2,3,6-tetrahydro-pyridin-4-yl]-1H-indole], the Ki was 10.3 nM. To `C1=C(c2ccc3ccccc3c2)CCN(CCCCc2ccncc2)C1` [4-[4-(4-Naphthalen-2-yl-3,6-dihydro-2H-pyridin-1-yl)-butyl]-pyridine] belongs 3.07 nM; to `C1=C(c2ccccc2)CCN(CCCCc2ccncc2)C1` [4-[4-(4-Phenyl-3,6-dihydro-2H-pyridin-1-yl)-butyl]-pyridine], 2.72 nM. For the compound `C1=C(c2cccs2)CCN(CCCCc2ccncc2)C1` [4-[4-(4-Thiophen-2-yl-3,6-dihydro-2H-pyridin-1-yl)-butyl]-pyridine], the Ki was 2.13 nM. Turning to `Cc1ccc(C2=CCN(CCCCc3ccncc3)CC2)cc1` [4-[4-(4-p-Tolyl-3,6-dihydro-2H-pyridin-1-yl)-butyl]-pyridine], the Ki was 5.86 nM. `Clc1ccc(C2=CCN(CCCCc3ccncc3)CC2)cc1` [4-{4-[4-(4-Chloro-phenyl)-3,6-dihydro-2H-pyridin-1-yl]-butyl}-pyridine]: the Ki is 1.04 nM. Under `Fc1ccc(C2=CCN(CCCCc3ccncc3)CC2)cc1` [4-{4-[4-(4-Fluoro-phenyl)-3,6-dihydro-2H-pyridin-1-yl]-butyl}-pyridine] stands 1.75 nM; under `COc1ccc(C2=CCN(CCCCc3ccncc3)CC2)cc1` [4-{4-[4-(4-Methoxy-phenyl)-3,6-dihydro-2H-pyridin-1-yl]-butyl}-pyridine], 0.45 nM.
